Test results as given in US4897392A, “4H-indolo(1,2-d)(1,2,4)triazolo(4,3-A)(1,4)benzodiazepines” (Hoechst-Roussel Pharmaceuticals, Inc., priority 1989, dated 1990).

System: mice
Assay: 2-phenyl-1,4-benzoquinone-induced writhing test in mice (Phenylquinone Writhing, PQW), analgesic activity
Type: in vivo
Description: The compounds of Formula I of the present invention are useful as analgesic agents due to their ability to alleviate pain in mammals. […] Exptl. Biol. Med., 95, 729 (1957)].

| Compound | Analgesic PQW, % Inhibition of Writhing at 20 mg/kg., s.c. [%] | Analgesic PQW, % Inhibition of Writhing (reference compound, at 3.9 mg/kg, s.c.) (3.9 mg/kg) [%] |
| --- | --- | --- |
| Cc1nnc2n1-c1ccccc1-c1c(Cl)c3ccccc3n1C2 [10-Chloro-1-methyl-4H-indolo[1,2-d][1,2,4]triazolo[4,3-a][1,4]benzodiazepin] | 51 |  |
| Cc1nnc2n1-c1ccc(Cl)cc1-c1c(Cl)c3ccccc3n1C2 [10,12-Dichloro-1-methyl-4H-indolo[1,2-d][1,2,4]triazolo[4,3-a][1,4]benzodiazepine] | 32 |  |
| Cc1nnc2n1-c1ccccc1-c1cc3ccccc3n1C2 [1-Methyl-4H-indolo[1,2-d][1,2,4]triazolo[4,3-a][1,4]benzodiazepine] | 37 |  |
| Cc1nnc2n1-c1ccc(Cl)cc1-c1cc3ccccc3n1C2 [12-Chloro-1-methyl-4H-indolo[1,2-d][1,2,4]triazolo[4,3-a][1,4]benzodiazepin] | 46 |  |
| CCC(=O)O[C@](Cc1ccccc1)(c1ccccc1)[C@H](C)CN(C)C [Propoxyphene, reference compound] |  | 50 |
